In patent US6953812B2, “Glucagon antagonists/inverse agonists” (Novo Nordisk, Inc., priority 2000, dated 2005):
Read-outs that look alike come from different tables or passages of the source.

Tests used:
human glucagon receptor = biological target: T1, human glucagon receptor (Homo sapiens, UniProt P47871); assay: Glucagon Binding Assay (II)
T1 construct: expressed in transfected cells; host or cells: BHK (baby hamster kidney) cells, membrane preparation
In short: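 Membranes from BHK cells transfected with the human glucagon receptor were incubated with test compound (in DMSO) in HEPES buffer pH 7.5 with Ca2+/Mg2+ and WGA beads for 4 h, then settled 8–48 h before scintillation counting. Non-specific binding was defined with 500 nM glucagon.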

human GIP receptor = biological target: T2, human GIP receptor (Homo sapiens, UniProt P48546); assay: GIP Binding Assay; settings: membranes of BHK cells transfected with human GIP receptor, 125I-GIP, SPA; read-out: GIP Bd Assay IC50
T2 construct: expressed in transfected cells; host or cells: BHK (baby hamster kidney) cells, membrane preparation
T2 sequence (P48546 22-466): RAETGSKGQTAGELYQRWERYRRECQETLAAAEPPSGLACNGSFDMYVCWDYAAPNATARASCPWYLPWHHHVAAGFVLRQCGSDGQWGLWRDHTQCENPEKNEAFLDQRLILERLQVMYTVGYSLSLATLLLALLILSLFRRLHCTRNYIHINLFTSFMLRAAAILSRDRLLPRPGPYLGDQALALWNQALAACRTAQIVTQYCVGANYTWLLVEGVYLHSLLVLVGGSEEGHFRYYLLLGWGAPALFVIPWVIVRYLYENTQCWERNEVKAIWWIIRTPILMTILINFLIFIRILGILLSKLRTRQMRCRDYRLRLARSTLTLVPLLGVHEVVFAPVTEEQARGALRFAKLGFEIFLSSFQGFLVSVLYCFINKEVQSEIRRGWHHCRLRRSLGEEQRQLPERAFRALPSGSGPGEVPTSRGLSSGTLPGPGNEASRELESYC
In short: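 Membranes from BHK cells transfected with human GIP receptor; competition binding in HEPES pH 7.5 buffer with Ca2+/Mg2+, compounds added in DMSO, WGA SPA beads. Incubated 3.5 h shaking, settled 8-48 h, then scintillation counted; non-specific binding defined with 500 nM GIP.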

[1] = membranes of BHK cells transfected with human glucagon receptor, 125I-glucagon, SPA, read-out: Glu Bd Assay (II) IC50

T1 sequence (P47871 26-477): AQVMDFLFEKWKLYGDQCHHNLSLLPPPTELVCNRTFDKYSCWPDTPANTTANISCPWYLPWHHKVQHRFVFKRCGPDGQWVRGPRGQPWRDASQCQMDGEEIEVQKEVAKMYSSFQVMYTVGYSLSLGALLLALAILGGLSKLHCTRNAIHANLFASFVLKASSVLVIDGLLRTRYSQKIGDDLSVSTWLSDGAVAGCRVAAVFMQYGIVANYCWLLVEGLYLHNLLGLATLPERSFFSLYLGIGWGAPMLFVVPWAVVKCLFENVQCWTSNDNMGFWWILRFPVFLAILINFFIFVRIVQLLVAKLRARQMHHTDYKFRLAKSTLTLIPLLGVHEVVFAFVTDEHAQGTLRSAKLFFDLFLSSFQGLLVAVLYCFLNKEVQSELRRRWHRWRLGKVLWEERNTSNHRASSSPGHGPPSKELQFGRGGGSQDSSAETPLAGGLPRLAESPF

For `CC(C)(C)[C@H]1CC[C@H](N(Cc2ccc(C(=O)NC[C@H](O)C(=O)O)cc2)C(=O)Nc2cc(C(F)(F)F)cc(C(F)(F)F)c2)CC1` [Example 13, (S)-Trans-3-{4-[3-(3,5-Bis(trifluoromethyl)phenyl)-1-(4-tert-butylcyclohexyl)ureidomethyl]benzoylamino}-2-hydroxypropionic acid], the IC50 (human glucagon receptor; [1]) was 228 nM, the IC50 (human GIP receptor) was 700 nM and the melting point was 185 to 187 °C.

In the case of `CC(C)(C)[C@H]1CC[C@H](N(Cc2ccc(C(=O)NC[C@@H](O)C(=O)O)cc2)C(=O)Nc2cc(C(F)(F)F)cc(C(F)(F)F)c2)CC1` [Example 14, (R)-Trans-3-{4-[3-(3,5-bis(trifluoromethyl)phenyl)-1-(4-tert-butylcyclohexyl)ureidomethyl]benzoylamino}-2-hydroxypropionic acid], the IC50 (human glucagon receptor; [1]) is reported as 19 nM, the IC50 (human GIP receptor) is reported as 274 nM and the melting point is reported as 184 to 187 °C.

For `CC(C)(C)C1CC=C(c2ccc(N(Cc3ccc(C(=O)NC[C@@H](O)C(=O)O)cc3)C(=O)Nc3cc(Cl)cc(Cl)c3)cc2)CC1` (stereo partly drawn) [Example 33, 3-{4-[1-[4-(4-tert-Butylcyclohex-1-enyl)phenyl]-3-(3,5-dichlorophenyl)ureidomethyl]benzoyl-amino}-2-(R)-hydroxypropionic Acid], the IC50 (human glucagon receptor; [1]) was 12 nM, the IC50 (human GIP receptor) was 189 nM and the melting point was 151 to 155 °C.

In the case of `O=C(NC[C@@H](O)C(=O)O)c1ccc(CN(C(=O)Cc2cc(F)cc(C(F)(F)F)c2)c2ccc(C3CCCCC3)cc2)cc1` [Example 65, (R)-3-[4-({(4-Cyclohexylphenyl)-[(3-fluoro-5-trifluoromethylphenyl)acetyl]amino}methyl)benzoylamino]-2-hydroxypropionic acid], the IC50 (human glucagon receptor; [1]) is reported as 520 nM and the IC50 (human GIP receptor) is reported as > 3000 nM.

For `O=C(NC[C@@H](O)C(=O)O)c1ccc(CN(C(=O)Cc2cc(C(F)(F)F)cc(C(F)(F)F)c2)c2ccc(C3CCCCC3)cc2)cc1` [Example 66, (R)-3-(4-{([(3,5-Bis(trifluoromethyl)phenyl)acetyl]-(4-cyclohexylphenyl)amino)methyl}benzoylamino)-2-hydroxypropionic acid], the IC50 (human glucagon receptor; [1]) was 325 nM and the IC50 (human GIP receptor) was > 3000 nM.

With `O=C(NC[C@@H](O)C(=O)O)c1ccc(CN(C(=O)Cc2cccc(C(F)(F)F)c2)c2ccc(C3CCCCC3)cc2)cc1` [Example 67, (R)-3-[4-({(4-Cyclohexylphenyl)-[(3-trifluoromethylphenyl)acetyl]amino}methyl)benzoylamino]-2-hydroxypropionic acid] the IC50 (human glucagon receptor; [1]) was 520 nM and the IC50 (human GIP receptor) was > 3000 nM.

With `O=C(NC[C@@H](O)C(=O)O)c1ccc(CN(C(=O)Cc2ccc(Cl)c(Cl)c2)c2ccc(C3CCCCC3)cc2)cc1` [Example 68, (R)-3-[4-({(4-Cyclohexylphenyl)-[(3,4-dichlorophenyl)acetyl]amino}methyl)benzoylamino]-2-hydroxypropionic acid] the IC50 (human glucagon receptor) was 528 nM and the IC50 (human GIP receptor) was > 3000 nM.

For `O=C(NC[C@@H](O)C(=O)O)c1ccc(CN(C(=O)Cc2cccc(Br)c2)c2ccc(C3CCCCC3)cc2)cc1` [Example 69, (R)-3-(4-{[[(3-Bromophenyl)acetyl]-(4-cyclohexylphenyl)amino]methyl}benzoylamino)-2-hydroxypropionic acid], the IC50 (human glucagon receptor; [1]) was 430 nM and the IC50 (human GIP receptor) was > 3000 nM.

For `O=C(NC[C@@H](O)C(=O)O)c1ccc(CN(C(=O)Cc2ccc(-c3ccccc3)cc2)c2ccc(C3CCCCC3)cc2)cc1` [Example 70, (R)-3-(4-{[(Biphenyl-4-ylacetyl)-(4-cyclohexylphenyl)amino]methyl}benzoylamino)-2-hydroxypropionic acid], the IC50 (human glucagon receptor; [1]) was 740 nM and the IC50 (human GIP receptor) was > 3000 nM.

For `O=C(NC[C@@H](O)C(=O)O)c1ccc(CN(C(=O)Cc2ccc3ccccc3c2)c2ccc(C3CCCCC3)cc2)cc1` [Example 71, (R)-3-(4-{[(4-Cyclohexylphenyl)-(2-naphthylacetyl)amino]methyl}benzoylamino)-2-hydroxypropionic acid], the IC50 (human glucagon receptor; [1]) was 886 nM and the IC50 (human GIP receptor) was > 3000 nM.

For `O=C(NC[C@@H](O)C(=O)O)c1ccc(CN(C(=O)CCc2cc(C(F)(F)F)cc(C(F)(F)F)c2)c2ccc(C3CCCCC3)cc2)cc1` [Example 72, (R)-3-(4-{[(3-(3,5-Bis(trifluoromethyl)phenyl)propionyl)-(4-cyclohexylphenyl)amino]methyl}benzoylamino)-2-hydroxypropionic acid], the IC50 (human glucagon receptor; [1]) was 542 nM and the IC50 (human GIP receptor) was > 3000 nM.

In the case of `O=C(NC[C@@H](O)C(=O)O)c1ccc(CN(C(=O)CCc2cccc([N+](=O)[O-])c2)c2ccc(C3CCCCC3)cc2)cc1` [Example 73, (R)-3-[4-({(4-Cyclohexylphenyl)-[3-(3-nitrophenyl)propionyl]amino}methyl)benzoylamino]-2-hydroxypropionic acid], the IC50 (human glucagon receptor; [1]) is reported as 680 nM and the IC50 (human GIP receptor) is reported as > 3000 nM.
